Test results from the NIST ThermoML archive (doi:10.1007/s10765-008-0410-4).

Assay: xn = mol fraction of the nth substance listed
Settings: Liquid, Vibrating tube method

CCCCn1cc[n+](C)c1.F[B-](F)(F)F [1-butyl-3-methylimidazolium tetrafluoroborate] + CCO
Settings	mass density [kg/m3]
348.15 K, 20740 kPa, x1 = 0.9152	1174.39
348.15 K, 20870 kPa, x1 = 1	1185.63
348.15 K, 21630 kPa, x1 = 0.3147	1023.15
348.15 K, 25140 kPa, x1 = 0.9152	1176.67
348.15 K, 25380 kPa, x1 = 0.0701	858.25
348.15 K, 25410 kPa, x1 = 0.7452	1149.62
348.15 K, 25430 kPa, x1 = 0.5384	1104.11
348.15 K, 25850 kPa, x1 = 1	1188.16
348.15 K, 26120 kPa, x1 = 0.3147	1025.95
348.15 K, 29980 kPa, x1 = 0.9152	1179.1
348.15 K, 30070 kPa, x1 = 0.7452	1152.07
348.15 K, 30110 kPa, x1 = 1	1190.19
348.15 K, 30220 kPa, x1 = 0.0701	861.8
348.15 K, 30550 kPa, x1 = 0.3147	1028.55
348.15 K, 30670 kPa, x1 = 0.5384	1107
348.15 K, 35070 kPa, x1 = 0.9152	1181.59
348.15 K, 35110 kPa, x1 = 1	1192.88
348.15 K, 35140 kPa, x1 = 0.7452	1154.63
348.15 K, 35170 kPa, x1 = 0.0701	865.16
348.15 K, 35620 kPa, x1 = 0.5384	1109.59
348.15 K, 35630 kPa, x1 = 0.3147	1031.33
348.15 K, 39560 kPa, x1 = 0.5384	1111.54
348.15 K, 39610 kPa, x1 = 1	1194.77
348.15 K, 39740 kPa, x1 = 0.9152	1183.8
348.15 K, 39940 kPa, x1 = 0.7452	1156.96
348.15 K, 40010 kPa, x1 = 0.3147	1033.56
348.15 K, 40030 kPa, x1 = 0.0701	868.18
373.15 K, 470 kPa, x1 = 1	1157.24
373.15 K, 510 kPa, x1 = 0.0701	812.28
373.15 K, 520 kPa, x1 = 0.7452	1117.1
373.15 K, 750 kPa, x1 = 0.5384	1069.65
373.15 K, 780 kPa, x1 = 0.9152	1145.53
373.15 K, 810 kPa, x1 = 0.3147	987.83
373.15 K, 5060 kPa, x1 = 0.5384	1072.77
373.15 K, 5090 kPa, x1 = 0.7452	1120.2
373.15 K, 5140 kPa, x1 = 0.9152	1148.26
373.15 K, 5350 kPa, x1 = 1	1160.25
373.15 K, 5790 kPa, x1 = 0.0701	818.18
373.15 K, 5820 kPa, x1 = 0.3147	992.08
373.15 K, 10070 kPa, x1 = 0.5384	1076.3
373.15 K, 10080 kPa, x1 = 1	1163.09
373.15 K, 10570 kPa, x1 = 0.9152	1151.58
373.15 K, 10610 kPa, x1 = 0.7452	1123.82
373.15 K, 10950 kPa, x1 = 0.3147	996.25
373.15 K, 11040 kPa, x1 = 0.0701	823.77
373.15 K, 15080 kPa, x1 = 0.9152	1154.27
373.15 K, 15130 kPa, x1 = 0.0701	827.92
373.15 K, 15340 kPa, x1 = 0.5384	1079.9
373.15 K, 15710 kPa, x1 = 1	1166.39
373.15 K, 15730 kPa, x1 = 0.3147	999.95
373.15 K, 15840 kPa, x1 = 0.7452	1127.11
373.15 K, 19860 kPa, x1 = 0.3147	1003.02
373.15 K, 20090 kPa, x1 = 0.7452	1129.7
373.15 K, 20540 kPa, x1 = 0.9152	1157.45
373.15 K, 20610 kPa, x1 = 0.5384	1083.37
373.15 K, 20970 kPa, x1 = 1	1169.38
373.15 K, 21220 kPa, x1 = 0.0701	833.79
373.15 K, 24670 kPa, x1 = 0.9152	1159.79
373.15 K, 25130 kPa, x1 = 0.0701	837.37
373.15 K, 25460 kPa, x1 = 0.7452	1132.84
373.15 K, 25820 kPa, x1 = 1	1172.07
373.15 K, 25930 kPa, x1 = 0.5384	1086.76
373.15 K, 25990 kPa, x1 = 0.3147	1007.35
373.15 K, 29760 kPa, x1 = 0.9152	1162.61
373.15 K, 30010 kPa, x1 = 0.5384	1089.27
373.15 K, 30070 kPa, x1 = 0.7452	1135.43
373.15 K, 30120 kPa, x1 = 1	1174.39
373.15 K, 30260 kPa, x1 = 0.0701	841.81
373.15 K, 30670 kPa, x1 = 0.3147	1010.47
373.15 K, 35030 kPa, x1 = 0.5384	1092.26
373.15 K, 35180 kPa, x1 = 0.7452	1138.19
373.15 K, 35220 kPa, x1 = 0.3147	1013.34
373.15 K, 35520 kPa, x1 = 0.0701	846.1
373.15 K, 35530 kPa, x1 = 1	1177.22
373.15 K, 36740 kPa, x1 = 0.9152	1166.35
373.15 K, 39820 kPa, x1 = 0.3147	1016.1
373.15 K, 39820 kPa, x1 = 1	1179.41
373.15 K, 39840 kPa, x1 = 0.0701	849.4
373.15 K, 39870 kPa, x1 = 0.9152	1167.99
373.15 K, 39920 kPa, x1 = 0.7452	1140.63
373.15 K, 39940 kPa, x1 = 0.5384	1095.08
398.15 K, 860 kPa, x1 = 0.9152	1128.45
398.15 K, 870 kPa, x1 = 1	1141.05
398.15 K, 920 kPa, x1 = 0.5384	1049.06
398.15 K, 940 kPa, x1 = 0.7452	1098.62
398.15 K, 960 kPa, x1 = 0.3147	966.26
398.15 K, 1010 kPa, x1 = 0.0701	788.85
398.15 K, 5060 kPa, x1 = 0.5384	1052.44
398.15 K, 5120 kPa, x1 = 0.7452	1101.74
398.15 K, 5750 kPa, x1 = 0.0701	795.42
398.15 K, 5840 kPa, x1 = 0.9152	1131.83
398.15 K, 6350 kPa, x1 = 0.3147	971.33
398.15 K, 6670 kPa, x1 = 1	1144.53
398.15 K, 9630 kPa, x1 = 0.9152	1134.36
398.15 K, 10070 kPa, x1 = 0.7452	1105.35
398.15 K, 10150 kPa, x1 = 0.0701	801.14
398.15 K, 10420 kPa, x1 = 0.5384	1056.68
398.15 K, 10490 kPa, x1 = 1	1147.07
398.15 K, 10930 kPa, x1 = 0.3147	975.46
398.15 K, 15030 kPa, x1 = 0.5384	1060.22
398.15 K, 15080 kPa, x1 = 0.7452	1108.88
398.15 K, 15110 kPa, x1 = 0.0701	807.16
398.15 K, 15620 kPa, x1 = 0.3147	979.51
398.15 K, 15730 kPa, x1 = 1	1150.32
398.15 K, 16470 kPa, x1 = 0.9152	1138.81
398.15 K, 19970 kPa, x1 = 0.5384	1063.89
398.15 K, 20040 kPa, x1 = 0.9152	1141.07
398.15 K, 20150 kPa, x1 = 0.3147	983.26
398.15 K, 20640 kPa, x1 = 0.7452	1112.68
398.15 K, 20740 kPa, x1 = 0.0701	813.42
398.15 K, 20980 kPa, x1 = 1	1153.78
398.15 K, 24980 kPa, x1 = 0.5384	1067.49
398.15 K, 25120 kPa, x1 = 0.9152	1144.22
398.15 K, 25130 kPa, x1 = 0.0701	817.89
398.15 K, 25140 kPa, x1 = 1	1156.3
398.15 K, 25170 kPa, x1 = 0.3147	987.21
398.15 K, 25370 kPa, x1 = 0.7452	1115.8
398.15 K, 30030 kPa, x1 = 0.5384	1070.98
398.15 K, 30280 kPa, x1 = 0.7452	1118.94
398.15 K, 30410 kPa, x1 = 0.3147	991.12
398.15 K, 30450 kPa, x1 = 0.9152	1147.45
398.15 K, 30850 kPa, x1 = 0.0701	823.16
398.15 K, 30890 kPa, x1 = 1	1159.52
398.15 K, 35070 kPa, x1 = 0.5384	1074.35
398.15 K, 35140 kPa, x1 = 0.7452	1121.93
398.15 K, 35160 kPa, x1 = 0.3147	994.46
398.15 K, 35740 kPa, x1 = 0.9152	1150.56
398.15 K, 35810 kPa, x1 = 1	1162.4
398.15 K, 35860 kPa, x1 = 0.0701	827.28
398.15 K, 39560 kPa, x1 = 1	1164.38
398.15 K, 39850 kPa, x1 = 0.3147	997.59
398.15 K, 39860 kPa, x1 = 0.9152	1152.93
398.15 K, 39920 kPa, x1 = 0.7452	1124.78
398.15 K, 39940 kPa, x1 = 0.5384	1077.48
398.15 K, 39990 kPa, x1 = 0.0701	830.32
